Assays:
Experiment in all cases: relative viability (nuclei count vs DMSO), 5 days (fraction); higher = more cells survive
Adavosertib + Dasatinib = compound: C=CCn1c(=O)c2cnc(Nc3ccc(N4CCN(C)CC4)cc3)nc2n1-c1cccc(C(C)(C)O)n1 [Adavosertib] + Cc1nc(Nc2ncc(C(=O)Nc3c(C)cccc3Cl)s2)cc(N2CCN(CCO)CC2)n1 [Dasatinib] (partner 0.075 µM)
How it was run: (§1)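 Lung cancer cell lines in 1536-well plates were dosed by pin tool the day after seeding, either with one drug alone or with a fixed anchor-drug dose plus five library-drug doses (not always all listed) in √10 steps. After 5 days, cells were fixed and their nuclei stained in one step (final 0.05% Triton X-100, 1% formaldehyde, 1 ug/ml Hoechst), then counted on 4× images. Relative viability is the nuclei count in treated wells divided by that in vehicle wells. Values are medians of duplicate plates.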

Nelarabine + OSI-027 = compound: COc1nc(N)nc2c1ncn2[C@@H]1O[C@H](CO)[C@@H](O)[C@@H]1O [Nelarabine] + COc1cccc2cc(-c3nc([C@H]4CC[C@H](C(=O)O)CC4)n4ncnc(N)c34)[nH]c12 [OSI-027] (partner 0.5 µM)
How it was run: as §1

Nelarabine + Alpelisib = compound: COc1nc(N)nc2c1ncn2[C@@H]1O[C@H](CO)[C@@H](O)[C@@H]1O [Nelarabine] + Cc1nc(NC(=O)N2CCC[C@H]2C(N)=O)sc1-c1ccnc(C(C)(C)C(F)(F)F)c1 [Alpelisib] (partner 2 µM)
How it was run: as §1

Nelarabine + Vorinostat = compound: COc1nc(N)nc2c1ncn2[C@@H]1O[C@H](CO)[C@@H](O)[C@@H]1O [Nelarabine] + O=C(CCCCCCC(=O)Nc1ccccc1)NO [Vorinostat] (partner 1 µM)
How it was run: as §1

Row | Cell Line | relative viability (Adavosertib + Dasatinib; first compound 0.01 µM) | relative viability (Adavosertib + Dasatinib; first compound 0.03162 µM) | relative viability (Adavosertib + Dasatinib; first compound 0.1 µM) | relative viability (Adavosertib + Dasatinib; first compound 0.3162 µM) | relative viability (Nelarabine + OSI-027; first compound 0.01 µM) | relative viability (Nelarabine + OSI-027; first compound 0.03162 µM) | relative viability (Nelarabine + OSI-027; first compound 0.1 µM) | relative viability (Nelarabine + OSI-027; first compound 0.3162 µM) | relative viability (Nelarabine + OSI-027; first compound 1 µM) | relative viability (Nelarabine + Alpelisib; first compound 0.01 µM) | relative viability (Nelarabine + Alpelisib; first compound 0.03162 µM) | relative viability (Nelarabine + Alpelisib; first compound 0.1 µM) | relative viability (Nelarabine + Alpelisib; first compound 0.3162 µM) | relative viability (Nelarabine + Alpelisib; first compound 1 µM) | relative viability (Nelarabine + Vorinostat; first compound 0.01 µM) | relative viability (Nelarabine + Vorinostat; first compound 0.03162 µM) | relative viability (Nelarabine + Vorinostat; first compound 0.1 µM) | relative viability (Nelarabine + Vorinostat; first compound 0.3162 µM) | relative viability (Nelarabine + Vorinostat; first compound 1 µM)
1 | NCI-H647 | 0.2 | 0.21 | 0.259 | 0.107 | 0.481 | 0.683 | 0.68 | 0.68 | 0.571 | 1.2 | 0.705 | 1.12 | 1.56 | 1.19 | 0.764 | 0.798 | 0.716 | 0.456 | 0.583
2 | NCI-H2009 | 0.318 | 0.294 | 0.297 | 0.178 | 0.767 | 0.643 | 0.546 | 0.696 | 0.71 | 1.25 | 1.32 | 1.15 | 1.2 | 1.14 | 0.789 | 0.676 | 0.663 | 0.8 | 0.661
3 | NCI-H2228 | 0.536 | 0.492 | 0.475 | 0.265 | 0.949 | 0.635 |  | 0.784 | 0.563 | 0.882 | 0.595 |  | 0.815 | 0.676 | 0.634 | 0.569 | 0.387 | 0.495 | 0.792
4 | NCI-H1395 | 0.427 | 0.407 | 0.416 | 0.439 | 0.611 | 0.587 | 0.632 | 0.615 | 0.634 | 1.15 | 0.987 | 1 | 1.34 | 0.99 | 0.757 | 0.706 | 1.16 | 0.755 | 0.666
5 | LK-2 | 0.286 | 0.229 | 0.291 | 0.359 | 0.167 |  | 0.159 | 0.178 | 0.162 | 1.58 |  | 1.13 | 1.12 | 1.04 | 0.242 | 0.256 | 0.334 | 0.294 | 0.283
6 | NCI-H520 | 0.194 | 0.181 | 0.183 | 0.217 | 0.321 | 0.233 | 0.233 | 0.395 | 0.264 | 1.16 | 0.924 | 1.16 | 1.03 | 1.1 | 0.905 | 0.757 | 0.676 | 0.746 | 0.828
7 | CAL-12T | 0.501 | 0.416 | 0.438 | 0.222 | 0.616 | 0.874 | 0.687 | 0.635 | 0.583 | 1.86 | 1.48 | 1.16 | 1.4 | 1.37 | 0.987 | 0.78 | 0.764 | 0.938 | 0.997

Reference: the supplement of paper PMC10307832
